From the OligoGym collection
HELM strings list units from the 5' end as sugar, base in round brackets, then linkage (d deoxyribose, r ribose, m 2'-O-methyl, p phosphodiester). Strings are as the collection lists them; they lack the last nucleoside at the 3' end of the tested compound. [moe] = 2'-O-(2-methoxyethyl) (MOE); [sp] = phosphorothioate linkage; [m5C] = 5-methylcytosine

biological target: ATXN2; assay: mouse, dose not given; conditions: ASO

For “RNA1{[moe]([m5C])[sp].[moe](G)p.[moe](T)p.[moe](A)p.[moe](T)[sp].d(G)[sp].d(T)[sp].d(T)[sp].d(T)[sp].d(G)[sp].d(T)[sp].d([m5C])[sp].d(T)[sp].[moe](G)p.[moe](T)p.[moe]([m5C])[sp].[moe](T)}$$$$ (last 3' nucleoside missing)”, which 3 h FOB score is on record?
Its 3 h FOB score is 6 score 0-7.

With “RNA1{[moe](A)[sp].[moe](G)p.[moe](A)p.[moe](G)p.[moe](T)p.d(T)[sp].d(T)[sp].d(T)[sp].d(T)[sp].d(G)[sp].d([m5C])[sp].d([m5C])[sp].d(T)[sp].d(T)[sp].d([m5C])[sp].[moe]([m5C])p.[moe](A)p.[moe](T)[sp].[moe](T)}$$$$ (last 3' nucleoside missing)” as the substance, how does the 3 h FOB score read?
The 3 h FOB score was 3 score 0-7.

With “RNA1{[moe](A)[sp].[moe](A)p.[moe](G)p.[moe](A)p.[moe]([m5C])p.d(T)[sp].d(T)[sp].d(T)[sp].d(T)[sp].d(T)[sp].d(A)[sp].d(T)[sp].d(G)[sp].d(T)[sp].d(T)[sp].[moe](G)p.[moe]([m5C])p.[moe](T)[sp].[moe]([m5C])}$$$$ (last 3' nucleoside missing)” as the substance, how does the 3 h FOB score read?
The 3 h FOB score was 3.5 score 0-7.

For “RNA1{[moe](T)[sp].[moe](T)p.[moe]([m5C])p.[moe](T)p.[moe]([m5C])[sp].d(T)[sp].d(A)[sp].d(T)[sp].d(T)[sp].d(T)[sp].d([m5C])[sp].d(T)[sp].d(T)[sp].d(T)[sp].d(G)[sp].[moe](T)p.[moe]([m5C])p.[moe]([m5C])[sp].[moe](A)}$$$$ (last 3' nucleoside missing)”, which 3 h FOB score is on record?
The 3 h FOB score was 4 score 0-7.

“RNA1{[moe](A)[sp].[moe](T)p.[moe](T)p.[moe]([m5C])p.[moe](T)[sp].d(G)[sp].d(T)[sp].d(A)[sp].d([m5C])[sp].d(T)[sp].d(T)[sp].d(T)[sp].d(T)[sp].[moe]([m5C])p.[moe](T)p.[moe]([m5C])[sp].[moe](A)}$$$$ (last 3' nucleoside missing)” was tested. Which 3 h FOB score did it give?
The 3 h FOB score was 0 score 0-7.

For “RNA1{[moe](G)[sp].[moe](T)p.[moe](A)p.[moe](T)p.[moe](T)p.d(T)[sp].d(T)[sp].d(T)[sp].d([m5C])[sp].d(T)[sp].d(T)[sp].d([m5C])[sp].d([m5C])[sp].d(T)[sp].d([m5C])[sp].[moe](A)p.[moe]([m5C])p.[moe](T)[sp].[moe]([m5C])}$$$$ (last 3' nucleoside missing)”, which 3 h FOB score is on record?
Its 3 h FOB score is 3.25 score 0-7.

Which 3 h FOB score does the source give for “RNA1{[moe](G)[sp].[moe](G)p.[moe](T)p.[moe]([m5C])p.[moe](A)p.d(A)[sp].d(G)[sp].d(G)[sp].d(T)[sp].d([m5C])[sp].d(A)[sp].d(A)[sp].d(T)[sp].d(A)[sp].d([m5C])[sp].[moe](T)p.[moe](T)p.[moe](T)[sp].[moe](T)}$$$$ (last 3' nucleoside missing)” here?
Its 3 h FOB score is 2 score 0-7.

Which 3 h FOB score does the source give for “RNA1{[moe](T)[sp].[moe](A)p.[moe]([m5C])p.[moe](G)p.[moe]([m5C])p.d(G)[sp].d(G)[sp].d(T)[sp].d(G)[sp].d(A)[sp].d(A)[sp].d(T)[sp].d(T)[sp].d([m5C])[sp].d(T)[sp].[moe](G)p.[moe](T)p.[moe]([m5C])[sp].[moe](T)}$$$$ (last 3' nucleoside missing)” here?
Its 3 h FOB score is 0 score 0-7.

With “RNA1{[moe](T)[sp].[moe](A)p.[moe](A)p.[moe](G)p.[moe]([m5C])p.d(T)[sp].d(G)[sp].d(T)[sp].d(G)[sp].d([m5C])[sp].d(T)[sp].d(A)[sp].d(T)[sp].d(G)[sp].d(G)[sp].[moe](T)p.[moe](G)p.[moe](G)[sp].[moe](T)}$$$$ (last 3' nucleoside missing)” as the substance, how does the 3 h FOB score read?
Its 3 h FOB score is 6.25 score 0-7.

Which 3 h FOB score does the source give for “RNA1{[moe](T)[sp].[moe](G)[sp].[moe]([m5C])[sp].[moe](A)[sp].[moe](T)[sp].d(A)[sp].d(G)[sp].d(A)[sp].d(T)[sp].d(T)[sp].d([m5C])[sp].d([m5C])[sp].d(A)[sp].d(T)[sp].d([m5C])[sp].[moe](A)[sp].[moe](A)[sp].[moe](A)[sp].[moe](A)}$$$$ (last 3' nucleoside missing)” here?
The 3 h FOB score was 7 score 0-7.

With “RNA1{[moe](A)[sp].[moe](T)p.[moe](A)p.[moe](A)p.[moe](A)p.d([m5C])[sp].d(T)[sp].d(G)[sp].d(T)[sp].d(T)[sp].d(T)[sp].d(A)[sp].d([m5C])[sp].d(A)[sp].d(T)[sp].[moe]([m5C])p.[moe](T)p.[moe]([m5C])[sp].[moe]([m5C])}$$$$ (last 3' nucleoside missing)” as the substance, how does the 3 h FOB score read?
The 3 h FOB score was 4 score 0-7.

For “RNA1{[moe](G)[sp].[moe]([m5C])p.[moe](A)p.[moe](A)p.[moe]([m5C])p.d(T)[sp].d(T)[sp].d(A)[sp].d(A)[sp].d(T)[sp].d(A)[sp].d(A)[sp].d([m5C])[sp].d([m5C])[sp].d(T)[sp].[moe](T)p.[moe](A)p.[moe](G)[sp].[moe](T)}$$$$ (last 3' nucleoside missing)”, which 3 h FOB score is on record?
The 3 h FOB score was 0 score 0-7.

“RNA1{[moe]([m5C])[sp].[moe](T)p.[moe](T)p.[moe](T)p.[moe](T)p.d([m5C])[sp].d(T)[sp].d([m5C])[sp].d(A)[sp].d(T)[sp].d(G)[sp].d(T)[sp].d(G)[sp].d([m5C])[sp].d(G)[sp].[moe](G)p.[moe]([m5C])p.[moe](A)[sp].[moe](T)}$$$$ (last 3' nucleoside missing)” was tested. Which 3 h FOB score did it give?
Its 3 h FOB score is 6.25 score 0-7.

Which 3 h FOB score does the source give for “RNA1{[moe](T)[sp].[moe](T)p.[moe](A)p.[moe](A)p.[moe]([m5C])p.d(T)[sp].d(G)[sp].d(T)[sp].d(G)[sp].d(T)[sp].d(T)[sp].d(A)[sp].d(G)[sp].d(A)[sp].d(A)[sp].[moe](T)p.[moe](G)p.[moe]([m5C])[sp].[moe](T)}$$$$ (last 3' nucleoside missing)” here?
Its 3 h FOB score is 5.5 score 0-7.

Which 3 h FOB score does the source give for “RNA1{[moe](T)[sp].[moe]([m5C])p.[moe](T)p.[moe]([m5C])p.[moe]([m5C])[sp].d(A)[sp].d(T)[sp].d(T)[sp].d(A)[sp].d(T)[sp].d(T)[sp].d(T)[sp].d([m5C])[sp].[moe](T)p.[moe](T)p.[moe]([m5C])[sp].[moe](A)}$$$$ (last 3' nucleoside missing)” here?
The 3 h FOB score was 1 score 0-7.

With “RNA1{[moe](T)[sp].[moe]([m5C])p.[moe](T)p.[moe]([m5C])p.[moe]([m5C])p.d(A)[sp].d(T)[sp].d(T)[sp].d(A)[sp].d(T)[sp].d(T)[sp].d(T)[sp].d([m5C])[sp].d(T)[sp].d(T)[sp].[moe]([m5C])p.[moe](A)p.[moe]([m5C])[sp].[moe](G)}$$$$ (last 3' nucleoside missing)” as the substance, how does the 3 h FOB score read?
Its 3 h FOB score is 0.75 score 0-7.

“RNA1{[moe]([m5C])[sp].[moe](T)p.[moe](G)p.[moe](G)p.[moe](A)p.d(T)[sp].d(T)[sp].d([m5C])[sp].d(T)[sp].d(G)[sp].d(T)[sp].d(A)[sp].d([m5C])[sp].d(T)[sp].d(T)[sp].[moe](T)p.[moe](T)p.[moe]([m5C])[sp].[moe](T)}$$$$ (last 3' nucleoside missing)” was tested. Which 3 h FOB score did it give?
The 3 h FOB score was 5.25 score 0-7.

For “RNA1{[moe]([m5C])[sp].[moe](T)p.[moe](A)p.[moe](T)p.[moe]([m5C])p.d(A)[sp].d(T)[sp].d([m5C])[sp].d(A)[sp].d(T)[sp].d(T)[sp].d(T)[sp].d(T)[sp].d([m5C])[sp].d([m5C])[sp].[moe](A)p.[moe](G)p.[moe](G)[sp].[moe](G)}$$$$ (last 3' nucleoside missing)”, which 3 h FOB score is on record?
Its 3 h FOB score is 1 score 0-7.

For “RNA1{[moe](T)[sp].[moe](G)p.[moe](T)p.[moe](T)p.[moe](G)p.d([m5C])[sp].d(A)[sp].d([m5C])[sp].d(A)[sp].d(T)[sp].d(A)[sp].d(G)[sp].d(G)[sp].d(T)[sp].d(T)[sp].[moe](A)p.[moe](G)p.[moe](A)[sp].[moe](A)}$$$$ (last 3' nucleoside missing)”, which 3 h FOB score is on record?
Its 3 h FOB score is 4 score 0-7.

How did the 3 h FOB score turn out when “RNA1{[moe]([m5C])[sp].[moe](T)p.[moe](G)p.[moe](T)p.[moe](A)[sp].d([m5C])[sp].d(T)[sp].d(T)[sp].d(T)[sp].d(T)[sp].d([m5C])[sp].d(T)[sp].d([m5C])[sp].[moe](A)p.[moe](T)p.[moe](G)[sp].[moe](T)}$$$$ (last 3' nucleoside missing)” was run?
The 3 h FOB score was 3.5 score 0-7.

“RNA1{[moe](A)[sp].[moe]([m5C])p.[moe](G)p.[moe]([m5C])p.[moe](G)p.d(G)[sp].d(T)[sp].d(G)[sp].d(A)[sp].d(A)[sp].d(T)[sp].d(T)[sp].d([m5C])[sp].d(T)[sp].d(G)[sp].[moe](T)p.[moe]([m5C])p.[moe](T)[sp].[moe]([m5C])}$$$$ (last 3' nucleoside missing)” was tested. Which 3 h FOB score did it give?
Its 3 h FOB score is 1 score 0-7.

With “RNA1{[moe](A)[sp].[moe](A)p.[moe](G)p.[moe](A)p.[moe](T)p.d(G)[sp].d(G)[sp].d(G)[sp].d(T)[sp].d(T)[sp].d(T)[sp].d(T)[sp].d(T)[sp].d(T)[sp].d(T)[sp].[moe](G)p.[moe]([m5C])p.[moe](T)[sp].[moe](T)}$$$$ (last 3' nucleoside missing)” as the substance, how does the 3 h FOB score read?
Its 3 h FOB score is 4 score 0-7.

With “RNA1{[moe]([m5C])[sp].[moe](G)p.[moe](T)p.[moe](T)p.[moe](T)p.d([m5C])[sp].d([m5C])[sp].d(T)[sp].d(T)[sp].d([m5C])[sp].d(T)[sp].d([m5C])[sp].d([m5C])[sp].d([m5C])[sp].d(T)[sp].[moe](T)p.[moe](T)p.[moe](G)[sp].[moe](A)}$$$$ (last 3' nucleoside missing)” as the substance, how does the 3 h FOB score read?
The 3 h FOB score was 0 score 0-7.

For “RNA1{[moe](A)[sp].[moe](G)p.[moe]([m5C])p.[moe](T)p.[moe]([m5C])p.d(A)[sp].d(T)[sp].d([m5C])[sp].d(A)[sp].d(A)[sp].d(G)[sp].d(G)[sp].d(T)[sp].d(A)[sp].d([m5C])[sp].[moe]([m5C])p.[moe](A)p.[moe](G)[sp].[moe](T)}$$$$ (last 3' nucleoside missing)”, which 3 h FOB score is on record?
Its 3 h FOB score is 4 score 0-7.

With “RNA1{[moe](G)[sp].[moe](A)p.[moe](A)p.[moe](T)p.[moe]([m5C])p.d(T)[sp].d(T)[sp].d(A)[sp].d(T)[sp].d(T)[sp].d(A)[sp].d(A)[sp].d(G)[sp].d([m5C])[sp].d(A)[sp].[moe](A)p.[moe](G)p.[moe](T)[sp].[moe]([m5C])}$$$$ (last 3' nucleoside missing)” as the substance, how does the 3 h FOB score read?
The 3 h FOB score was 2.5 score 0-7.

For “RNA1{[moe](T)[sp].[moe]([m5C])p.[moe]([m5C])p.[moe](T)p.[moe](A)[sp].d(T)[sp].d([m5C])[sp].d(A)[sp].d(T)[sp].d([m5C])[sp].d(A)[sp].d(T)[sp].d(T)[sp].[moe](T)p.[moe](T)p.[moe]([m5C])[sp].[moe]([m5C])}$$$$ (last 3' nucleoside missing)”, which 3 h FOB score is on record?
The 3 h FOB score was 1 score 0-7.

With “RNA1{[moe](G)[sp].[moe](G)p.[moe](A)p.[moe](T)p.[moe](T)[sp].d([m5C])[sp].d(T)[sp].d(G)[sp].d(T)[sp].d(A)[sp].d([m5C])[sp].d(T)[sp].d(T)[sp].[moe](T)p.[moe](T)p.[moe]([m5C])[sp].[moe](T)}$$$$ (last 3' nucleoside missing)” as the substance, how does the 3 h FOB score read?
Its 3 h FOB score is 2.5 score 0-7.
